Experimental findings from PubChem BioAssay AID1645848 are described below.

The conditions of this data set: buffer; pH 7.4; 6.0 h; 150.0 µM.

By solubility (kinetic) is commonly meant the concentration staying in solution when a stock, usually in DMSO, is diluted into the medium.

Molecules are shown by their SMILES. Values after ≈ are worked out from the molar mass of the structure shown.

In turn, `Cc1nc(-c2ccco2)cc([C@H]2CN3CC[C@H]2C[C@@H]3CNC(=O)NC2CCCCC2)n1` gave a solubility (kinetic) of over 63 µg/mL.
The figure for `CC(C)NC(=O)c1nc(-c2ccc(Cl)nc2)c2ccccn12` is 17.2 µg/mL (≈ 54.6 µM); for `CCC(CC)c1cc([C@H]2CN3CC[C@H]2C[C@@H]3CNC(C)=O)nc(-c2ccncc2)n1` it is over 60 µg/mL; for `COc1cccc(Nc2nc(-c3ccncc3)nc3ccccc23)c1` it is under 1 µg/mL.
Compound `CNc1oc(-c2cccc3ccccc23)nc1C#N` showed a solubility (kinetic) of under 1 µg/mL.
Take `C[C@]12CC[C@@H]3[C@H](CCC4=CC(=O)CC[C@]43C)[C@]1(O)CC[C@@]2(O)C(=O)CO`: the kinetic solubility is over 54 µg/mL.
The figure for `Cc1ccc2oc(NC3=NC(c4[nH]ncc4Cl)C4=C(CCCC4=O)N3)nc2c1` (stereo not drawn) is 1.35 µg/mL (≈ 3.41 µM); for `CCCc1cc(C)[nH]c(=O)c1CNC(=O)c1cc(-c2ccnc(N3CCN(C)CC3)c2)cc2c1cnn2C(C)C` it is 64 µg/mL (≈ 118 µM); for `COc1cccc(NCCC2(c3ccccc3)CC(C)(C)OC(C)(C)C2)c1` it is under 1 µg/mL.
The figure for `Cn1c(=O)c2c(-c3ccc(Cl)cc3)n(CCc3ccccc3)cc2n(C)c1=O` is 2.15 µg/mL (≈ 5.46 µM); for `Cc1cc(C)nc(NC(=S)N2CCN(c3cc(C(F)(F)F)nc4ccccc34)CC2)c1` it is 19.7 µg/mL (≈ 44.3 µM).
The figure for `CC(C)(C)OC(=O)NC1CCN(c2nc(-c3ccc(Br)cc3)cs2)CC1` is 6.48 µg/mL (≈ 14.8 µM).
For `O=C(Nc1ccc(S(=O)(=O)Nc2ncc(-c3ccccc3)s2)cc1)c1ccc2ccccc2c1`, the kinetic solubility was under 1 µg/mL.
Then `O=C(Nc1ccc([S+](=O)([O-])Nc2nccs2)cc1)c1ccn[nH]1`, with over 52 µg/mL.
The figure for `Nc1c(C(=O)N2CCCCC2)sc(=S)n1-c1ccccc1` is 9.32 µg/mL (≈ 29.2 µM); for `CCc1ccc(NC(=O)c2[nH]c(C)c(C(C)=O)c2C)cc1[S+](=O)([O-])N1CCCCCC1` it is 1.19 µg/mL (≈ 2.67 µM); for `Cc1ccc(-c2cc(C(=O)Nc3ccc(S(=O)(=O)N(C)C)cc3)c3ccccc3n2)cc1C` it is under 1 µg/mL.
Then `CCOc1ccccc1CNS(=O)(=O)c1ccc(-c2cnc(C3CC3)o2)cc1`, with under 1 µg/mL; and `Fc1cnc(-c2ccccc2C(F)F)nc1NCc1ccc(-n2ccnn2)cc1`, with under 1 µg/mL; and `CC(C)CNC(=O)c1cn2cc(-c3ccccc3)sc2n1`, with 5.33 µg/mL (≈ 17.8 µM).
Consider `COc1ccccc1-c1nc(NCc2cnc(C)cn2)c2ccccc2n1`, for which the kinetic solubility was over 53 µg/mL.
Then `COc1cc(OC)c2c(=O)[nH]c(-c3cc(C)c(OCCO)c(C)c3)nc2c1`, with over 55 µg/mL; and `Cc1cccc(-n2cnc3cc(C(=O)N4CCCC(C(C)C)C4)ccc32)c1` (stereo not drawn), with 5.59 µg/mL (≈ 15.5 µM); and `FC(F)(F)c1cc(-c2ccc(CNc3nc(-c4ccccc4C(F)(F)F)nc4ccsc34)cc2)ccn1`, with under 1 µg/mL.
Then `CCc1oc2ccccc2c1C(=O)c1cc(Br)c(O)c(Br)c1`, with over 62 µg/mL; and `Cc1cccc2nc(-c3ccccn3)c(Nc3ccc(F)cc3)n12`, with 34.2 µg/mL (≈ 107 µM); and `O=C(CCCCCCC(=O)Nc1ccccc1)NO`, with over 39 µg/mL.
Then `Cc1nn2c(c1-c1ccccc1-c1ccccc1)N(Cc1ccc(C(=O)O)s1)CCC2`, with over 63 µg/mL.
`COc1ccc(C2=Nn3c(nnc3-c3ccncc3)SC2)cc1` displayed a solubility (kinetic) of 9.06 µg/mL (≈ 28 µM).
The compound `Cc1cn2c(-c3cn[nH]c3)cnc2c(Nc2ccc(C(=O)N3CCNCC3)cc2F)n1` gave a solubility (kinetic) of 13.4 µg/mL (≈ 31.8 µM).
Then `O=S(=O)(Nc1cccc2ccccc12)c1ccc(NCc2cccc(Cl)c2O)cc1`, with under 1 µg/mL; and `S=c1[nH]c2ccccc2n1CCc1ccccc1`, with 5.04 µg/mL (≈ 19.8 µM); and `Cc1cccc(-n2nc(C)c3c2NC(=O)CSC3c2ccccc2Cl)c1` (stereo not drawn), with 2.15 µg/mL (≈ 5.61 µM).
The figure for `NC(=O)C1CCN(c2nc(-c3cccnc3)cs2)CC1` is over 43 µg/mL; for `COc1cc(Cl)c(C)cc1NS(=O)(=O)c1c(C)nc2sccn2c1=O` it is under 1 µg/mL; for `CC(=O)Nc1ccc(N[S+](=O)([O-])c2cccc(NC(=O)c3[nH]c(C)c(C(C)=O)c3C)c2)cc1` it is 18.3 µg/mL (≈ 39 µM).
The figure for `Cc1ccc(S(=O)(=O)NCC(=O)Nc2nc(-c3ccccc3)cs2)cc1` is under 1 µg/mL; for `CN(Cc1ccccc1)C(=O)C1CCN(Cc2cccc3ccccc23)CC1` it is over 55 µg/mL; for `CC(C)N(CCCNC(=O)Nc1ccc(C(C)(C)C)cc1)C[C@H]1O[C@@H](n2ccc3c(N)ncnc32)[C@H](O)[C@@H]1O` it is over 80 µg/mL.
Compound `CCOC(=O)Nc1cc(-c2ccc(C)c(NS(C)(=O)=O)c2)nn2c(C)nnc12` showed a kinetic solubility of 33.6 µg/mL (≈ 83.2 µM).
Then `COc1cc(Nc2nc(-c3ccncc3)nc3ccccc23)ccc1Cl`, with under 1 µg/mL; and `COc1ccc(-n2nc(C3CCCN(C(=O)Cc4ccccn4)C3)[nH]c2=O)cc1` (stereo not drawn), with over 58 µg/mL.
The figure for `O=C1CCCC2=C1C1(CCCC1)N=C(Nc1nc3cc(Br)ccc3o1)N2` is under 1 µg/mL; for `CCOC(=O)c1ccc(N2C(=O)c3[nH]nc(-c4ccc(OC)cc4)c3C2c2ccc(C)cc2)cc1` (stereo not drawn) it is under 1 µg/mL.
The figure for `Cc1ccc(S(=O)(=O)Nc2ccccc2C(=O)Nc2nc(-c3ccccc3)c(C)s2)cc1` is under 1 µg/mL; for `O=C(Nc1cc(C(F)(F)F)ccc1N1CCOCC1)c1n[nH]c(=O)c2ccccc12` it is under 1 µg/mL.
For `Cc1cc(-c2nnc3n2CCCCC3)c(C)n1-c1cccc2ccccc12`, the solubility (kinetic) came out at 15.6 µg/mL (≈ 43.8 µM).
The figure for `Cc1cc2ccccc2n1CC(=O)NC1CCCCC1` is 3.41 µg/mL (≈ 12.6 µM).
The figure for `CC(C)(C)c1ccc(S(=O)(=O)N2CCC(c3ccncc3)CC2)cc1` is under 1 µg/mL; for `O=C1Nc2ccc(-c3cccc(C(F)(F)F)c3)cc2C(=O)N2CCN(C(=O)COc3ccccc3)C[C@H]12` it is under 1 µg/mL; for `Cc1ccc(C(=O)Nc2nc(-c3ccccn3)cs2)cc1S(=O)(=O)N1CCOCC1` it is 7.21 µg/mL (≈ 16.2 µM).
Then `O=[S+]([O-])(Nc1ccccc1)c1ccc(NCc2cccc(C(F)(F)F)c2F)cc1`, with 1.11 µg/mL (≈ 2.62 µM); and `CCCN(C(=O)c1sc2nc3n(c(=O)c2c1C)CCCC3)c1ccccc1C`, with 1.83 µg/mL (≈ 4.64 µM).
Take `CCn1cc(C(=O)O)c(=O)c2cnc(N3CCN(C(=S)Nc4ccccc4)CC3)nc21`: the kinetic solubility was over 65 µg/mL.
The figure for `Cc1ccc(C(=O)N2CCc3sc(C(=O)NC(C)c4ccccc4)cc3C2)cc1` (stereo not drawn) is 2.09 µg/mL (≈ 5.17 µM).
The figure for `Cc1cc(N)c2cc(NC(=O)Nc3ccc4nc(C)cc(N)c4c3)ccc2n1.Cl.Cl` is under 1 µg/mL.
Then `O=C(Nc1nc(-c2ccccc2)cs1)c1ccncc1NS(=O)(=O)c1cccnc1`, with over 65 µg/mL; and `CCCNC(=O)Nc1ccc(Oc2ncnc3cc(OC)c(OC)cc23)cc1Cl`, with 1.55 µg/mL (≈ 3.73 µM); and `OC1(c2ccc(Cl)cc2)CCN(Cc2c[nH]c3ccccc23)CC1`, with over 50 µg/mL.
As to `NC(=O)C1CCN(c2nnc(-c3ccc(Br)cc3)s2)CC1`, the solubility (kinetic) was 8.24 µg/mL (≈ 22.4 µM).
`Cn1cnc2c(F)c(Nc3ccc(Br)cc3Cl)c(C(=O)NOCCO)cc21` came in with a solubility (kinetic) of over 45 µg/mL.
The figure for `Cc1noc(C)c1S(=O)(=O)Nc1cnccc1C(=O)Nc1nc(-c2ccccc2)cs1` is over 66 µg/mL; for `Cc1cnc(-c2ccccc2C(F)F)nc1NCC1CN(c2cnccn2)C1` it is over 56 µg/mL.
The figure for `O=S(=O)(Nc1ccccc1)c1ccc(NCc2ccc(Br)cc2O)cc1` is 1.42 µg/mL (≈ 3.27 µM).
The figure for `COc1ccc(-c2ccc3nc(-c4cc(F)cc(F)c4F)oc3c2)c(OC)c1OC` is under 1 µg/mL.
Compound `O=C(Cc1ccc(Cl)c(Cl)c1)Nc1ccc(S(=O)(=O)Nc2nncs2)cc1` came in with a kinetic solubility of over 65 µg/mL.
The figure for `C#CCNC(=O)c1nc(-c2ccc(Cl)nc2)c2ccccn12` is 2.64 µg/mL (≈ 8.5 µM); for `Cc1ccc(S(=O)(=O)Nc2cnccc2C(=O)Nc2ccc(C#N)cc2)cc1` it is over 58 µg/mL.
The figure for `Cc1nc(NCc2ccco2)nc2c1C(=O)CC(C)C2` (stereo not drawn) is over 40 µg/mL; for `O=C1Nc2ccccc2C1Cc1cc(Cl)c(O)c(Cl)c1` (stereo not drawn) it is over 45 µg/mL; for `CCOC(=O)C1CCN(C(=O)C(C)(C)NC(=O)Nc2ccc(-c3ccccc3)cc2)CC1` it is 10.8 µg/mL (≈ 24.6 µM).
Then `Cc1cccc(CNc2ccc(S(=O)(=O)Nc3nccs3)cc2)c1O`, with over 55 µg/mL.
Consider `CCOC(=O)c1ccc2c(c1)c(C(C)=O)c(C)n2-c1ccc(OC)cc1`, for which the kinetic solubility was under 1 µg/mL.
Then `CCOc1ccc(CCNC(=O)c2cc3ccccc3n2Cc2ccc(Cl)c(F)c2)cc1OCC`, with under 1 µg/mL.
Compound `Fc1ccc(Nc2nc(-c3ccnc(C(F)(F)F)c3)nc3ccccc23)cc1F` returned a solubility (kinetic) of under 1 µg/mL.
Then `COc1ccc(C)cc1Nc1c2c(nc3ccccc13)CCC2`, with over 45 µg/mL; and `CC(=O)NCc1ccc(-c2csc(Nc3cc(C)cc(C)c3)n2)o1`, with 1.14 µg/mL (≈ 3.33 µM).
As for `CCN(CC)CCNC(=O)c1c(C)[nH]c(C=C2C(=O)Nc3ccc(F)cc32)c1C`, the solubility (kinetic) is over 59 µg/mL.
The figure for `O=C(O)c1ccnc2cc(C(OCC3CCC(F)(F)CC3)c3ccccc3Cl)[nH]c12` (stereo not drawn) is over 64 µg/mL.
The figure for `Fc1ccc(Nc2nc(-c3ccnc4ccccc34)nc3ccccc23)cc1F` is under 1 µg/mL; for `COc1ccc(C(=O)Nc2nc(-c3ccccc3)cs2)c(OC)c1` it is under 1 µg/mL.
Take `O=C(Nc1ccc([S+](=O)([O-])Nc2nccs2)cc1)c1ncn[nH]1`: the solubility (kinetic) was over 52 µg/mL.
In turn, `O=C(c1ccc(-c2ncc3cnc(-c4ccccc4)cn23)cc1)N1CCS(=O)(=O)CC1` came in with a kinetic solubility of 65.1 µg/mL (≈ 150 µM).
The compound `COc1ccc(-n2nc(C3CCN([S+](=O)([O-])c4cccc(C(F)(F)F)c4)CC3)[nH]c2=O)cc1` yielded a solubility (kinetic) of under 1 µg/mL.
The figure for `Cn1c(=O)c2cc(C(=O)NCCCN3CCN(c4ccccc4F)CC3)sc2c2ccccc21` is under 1 µg/mL; for `Fc1ccc(CN2CCOC[C@H]2c2ncc(-c3ccc(Cl)s3)[nH]2)cc1` it is 5.47 µg/mL (≈ 14.5 µM).
Compound `[2H]C([2H])(Nc1nc(-c2ccccc2C([2H])(C([2H])([2H])[2H])C([2H])([2H])[2H])ncc1C)c1ccc(-n2ccnn2)cc1` showed a solubility (kinetic) of 13.5 µg/mL (≈ 34.3 µM). Compared with the last compound, the solubility kinetic is about 2.5-fold higher.
Then `CN1CCN(C2=Nc3cc(Cl)ccc3Nc3ccccc32)CC1`, with 25.1 µg/mL (≈ 76.8 µM).
